Results: ChEMBL document CHEMBL3632618, “The isolation and synthesis of a novel benzofuran compound from Tephrosia purpurea, and the synthesis of several related derivatives, which suppress histamine H1 receptor gene expression” (Bioorg Med Chem, 2015)

System: HeLa
Experiment: Downregulation of PMA-induced H1R mRNA expressed in human HeLa cells incubated for 1 hr prior to PMA stimulation by RT-PCR method; call rule not given here
Format: functional, cell-based
[1] = Homo sapiens, HeLa, read-out: IC50

Compound	IC50 [1]	IC50 (hela)	IC50 (hela, read-out: IC50)
COc1cc2occc2cc1C(N)=O	49.1 µM	–	–
NC(=O)c1ccc2occc2c1O	–	Not Active	–
COc1c(C(N)=O)ccc2occc12	75.3 µM	–	83.7 µM
NC(=O)c1cc2ccoc2cc1O	84.6 µM	–	–
COc1c(C(=O)O)ccc2occc12	–	Not Active	–
COc1cc2occc2cc1C(=O)O	–	Not Active	–
